Experimental data from the NIST ThermoML archive (doi:10.1016/j.jct.2011.06.001).

Columns and labels:
[1] = molar heat capacity at constant pressure; settings: 101.33 kPa, Small sample (50 mg) DSC
[2] = Molar enthalpy of transition or fusion; settings: Crystal; DSC
[3] = Crystal; DTA
[4] = molar enthalpy of vaporization or sublimation; settings: 333.15 K, Crystal

[CH]1C=CC=C1.[CH]1C=CC=C1.[Fe] [ferrocene]
molar heat capacity at constant pressure [J/K/mol], [1]
Settings	Crystal	Gas
293 K	186.22	163.5
294 K	186.78	164.13
295 K	187.52	164.76
296 K	188.08	165.39
297 K	189.01	166.02
298 K	189.75	166.65
298.15 K	189.75	–
299 K	190.5	167.27
300 K	191.24	167.9
301 K	191.8	168.53
302 K	192.36	169.15
303 K	193.1	169.78
304 K	193.84	170.4
305 K	194.4	171.03
306 K	195.15	171.65
307 K	195.7	172.27
308 K	196.45	172.9
309 K	197.19	173.52
310 K	197.94	174.14
311 K	198.31	174.76
312 K	199.24	175.38
313 K	199.8	176
314 K	200.54	176.61
315 K	201.29	177.23
316 K	202.03	177.85
317 K	202.77	178.46
318 K	203.33	179.07
319 K	204.08	179.69
320 K	204.45	180.3
321 K	205.38	180.91
322 K	205.94	181.52
323 K	207.05	182.13
324 K	207.61	182.74
325 K	208.35	183.35
326 K	209.1	183.96
327 K	209.66	184.56
328 K	210.22	185.17
329 K	210.77	185.77
330 K	211.33	186.37
331 K	212.26	186.98
332 K	213.01	187.58
333 K	213.75	188.18
334 K	214.49	188.78
335 K	215.24	189.37
336 K	215.8	189.97
337 K	216.54	190.57
338 K	217.28	191.16
339 K	218.21	191.76
340 K	218.77	192.35
341 K	219.7	192.94
342 K	220.26	193.53
343 K	221.01	194.12
344 K	221.56	194.71
345 K	222.49	195.3
346 K	223.24	195.88
347 K	223.8	196.47
348 K	223.98	197.05
349 K	225.1	197.64
350 K	226.77	198.22
351 K	226.59	198.8
352 K	226.96	199.38
353 K	227.7	199.96

Settings	Molar enthalpy of transition or fusion [kcal/mol]	Normal melting temperature [°C]
[2]	4.25	–
[3]	–	175

[4]
Settings	molar enthalpy [kcal/mol]
DSC	17.3
Static calorimetry	17.5
